BindingDB's records for doi:10.1021/acs.jmedchem.9b00575 (Glaxosmithkline, 2019)

Biological target: Nucleotide-binding oligomerization domain-containing protein 2 (Homo sapiens, UniProt Q9HC29)
Assay: Inhibition of NOD2 in human monocytes assessed as reduction in MDP-induced TNFalpha production preincubated for 30 mins followed by MDP-stimulation and measured after 6 hrs by immunoassay

Sequence of Nucleotide-binding oligomerization domain-containing protein 2 (Q9HC29 whole entry, the tested form may be a part): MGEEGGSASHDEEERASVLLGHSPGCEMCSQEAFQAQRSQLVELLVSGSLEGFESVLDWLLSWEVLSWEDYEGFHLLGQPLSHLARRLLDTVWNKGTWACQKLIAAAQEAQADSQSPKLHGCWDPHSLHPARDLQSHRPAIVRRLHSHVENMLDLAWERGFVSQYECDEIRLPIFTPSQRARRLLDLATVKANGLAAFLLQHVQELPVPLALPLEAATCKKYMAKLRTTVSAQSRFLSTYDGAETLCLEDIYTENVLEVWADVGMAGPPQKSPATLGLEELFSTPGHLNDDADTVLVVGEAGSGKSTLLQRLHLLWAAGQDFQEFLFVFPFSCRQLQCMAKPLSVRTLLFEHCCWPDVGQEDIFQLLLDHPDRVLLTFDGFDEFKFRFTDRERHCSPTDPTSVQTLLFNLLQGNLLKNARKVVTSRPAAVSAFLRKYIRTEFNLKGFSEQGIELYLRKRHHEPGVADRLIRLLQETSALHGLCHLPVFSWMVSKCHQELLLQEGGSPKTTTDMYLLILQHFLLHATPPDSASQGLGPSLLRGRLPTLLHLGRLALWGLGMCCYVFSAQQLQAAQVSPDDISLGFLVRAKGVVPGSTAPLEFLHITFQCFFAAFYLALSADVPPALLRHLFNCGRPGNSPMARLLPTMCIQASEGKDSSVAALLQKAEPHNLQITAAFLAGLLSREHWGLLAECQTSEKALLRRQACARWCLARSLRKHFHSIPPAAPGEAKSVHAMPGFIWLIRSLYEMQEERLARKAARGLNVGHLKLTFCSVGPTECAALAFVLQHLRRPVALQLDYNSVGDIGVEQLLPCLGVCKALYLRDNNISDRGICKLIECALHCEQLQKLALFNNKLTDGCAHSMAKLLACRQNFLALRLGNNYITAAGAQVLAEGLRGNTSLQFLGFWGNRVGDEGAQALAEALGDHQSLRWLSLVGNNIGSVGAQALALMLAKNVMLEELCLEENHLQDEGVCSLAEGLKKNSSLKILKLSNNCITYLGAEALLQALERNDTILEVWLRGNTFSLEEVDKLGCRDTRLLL

IC50: 13 nM
SMILES: CC(C)(C)S(=O)(=O)c1cc2c(Nc3ccc4scnc4c3)ncnc2cc1OCCO
